In patent US9458101B2 (priority 2009, dated 2016):

Columns and labels:
[1] = Dissolution of drug for cytotoxicity testing; type: physicochemical; set-up: key: X*: Did not dissolve at normal pH; details: footnote of Table 3
Method: Drug solutions were prepared by dissolving it into 4.5% dimethylsulfoxide and diluting with distilled water to a final concentration of 1 mM. A series of dilutions were prepared and a wavelength scan of the diluted solution was used to determine the wavelength of maximum absorbance for each compound. Five standardized drug concentrations were scanned at this pre-determined wavelength to obtain an estimate of the compound's extinction coefficient.

[2] = test system: NCI-H226 (Human lung squamous cell carcinoma); experiment: cells; type: cell-based; details: NCI-H226, 72 hours, precision +/−0.5 or better
Source text: (§1) A full factorial experimental design was used, for a total of 28 cases.
(§2) For each (cell line, compound) pair, the following conditions were used, with each condition being assigned to a lane on a microtiter plate: • a. Seven or eight concentration levels between 1×10^−10 M and 1×10^−3 M. • b. A control with cells and media only. • c. A control with cells, media and DMSO only. The DMSO was at a concentration approximately equal to that used in the highest drug concentration level.
(§3) Additionally, 6-8 replicates (wells) of each condition were done on the plate. Drug solutions were prepared by dissolving the solid compounds in DMSO and then diluting in water. An approximately equal number of cells were introduced into each well of the plate and cells were incubated for 72 hours. An MTS assay was performed and absorbance values were measured with a spectrophotometer. Finally, a log IC50 parameter was calculated by fitting a 4-parameter logistic model to the data using an implementation of the Levenberg-Marquardt algorithm.

[3] = test system: A549 (Human lung adenocarcinoma); experiment: cells; type: cell-based; details: A549, 72 hours, precision +/−0.5 or better
Source text: as §1, §2, §3

[4] = test system: CCRF-CEM (Human T-lymphoblastoids from ALL); experiment: cells; type: cell-based; details: 72 hours, precision +/−0.5 or better
Source text: as §1, §2, §3

[5] = test system: MCF-7 (Human mammary gland adenocarcinoma); experiment: cells; type: cell-based; details: MCF7, MCF-7, 72 hours, precision +/−0.5 or better
Source text: as §1, §2, §3

CEM cells = type: cell-based, Human

Row | SMILES | dissolution at normal pH [1] | IC50 [2] | IC50 [3] | IC50 [4] | IC50 [5] | fold lower IC50 than IC50 of (39) (CEM cells)
1 | COc1cc2c(c(OCc3ccccc3Cl)c1OC)-c1ccc(OC)c(=O)cc1[C@@H](NC(C)=O)CC2 [Compound 14, N-[(7S)-2,3,10-trimethoxy-9-oxo-1-((phenyl(2-chloro))methoxy)-5,6,7,9-tetrahydrobenzo[α]heptalen-7-yl]acetamide] | X* | – | – | – | – | –
2 | COc1cc2c(c(OC)c1OC)-c1ccc(OC)c(=O)cc1[C@@H](NC(=O)CNC(=O)C(F)(F)F)CC2 [Compound 28a] | – | 316 nM | 631 nM | 39.8 nM | – | –
3 | COc1cc2c(c(OC)c1OC)-c1ccc(SC)c(=O)cc1[C@@H](NC(=O)CNC(=O)C(F)(F)F)CC2 [Compound 47a] | – | 50.1 nM | 63.1 nM | 6.31 nM | 126000 nM | –
4 | CCOc1cc2c(c(OC)c1OC)-c1ccc(SC)c(=O)cc1[C@@H](N(C(C)=O)C(=O)CNC(=O)C(F)(F)F)CC2 [Compound 49, N-[(7S)-3-ethoxy-1,2-dimethoxy-10-methylsulfanyl-9-oxo-5,6,7,9-tetrahydrobenzo[α]heptalen-7-yl]-N-[(trifluoroacetyl)glycyl]acetamide] | – | – | – | – | – | about 8 fold
